Measurements published in ChEMBL document CHEMBL5291721, “A preclinical secondary pharmacology resource illuminates target-adverse drug reaction associations of marketed drugs” (Nat Commun, 2023).

Experiments:
[1] = biological target: T1, Alpha-1A adrenergic receptor (Homo sapiens, UniProt P35348); type: functional, cell-based
T1 sequence (P35348 whole entry): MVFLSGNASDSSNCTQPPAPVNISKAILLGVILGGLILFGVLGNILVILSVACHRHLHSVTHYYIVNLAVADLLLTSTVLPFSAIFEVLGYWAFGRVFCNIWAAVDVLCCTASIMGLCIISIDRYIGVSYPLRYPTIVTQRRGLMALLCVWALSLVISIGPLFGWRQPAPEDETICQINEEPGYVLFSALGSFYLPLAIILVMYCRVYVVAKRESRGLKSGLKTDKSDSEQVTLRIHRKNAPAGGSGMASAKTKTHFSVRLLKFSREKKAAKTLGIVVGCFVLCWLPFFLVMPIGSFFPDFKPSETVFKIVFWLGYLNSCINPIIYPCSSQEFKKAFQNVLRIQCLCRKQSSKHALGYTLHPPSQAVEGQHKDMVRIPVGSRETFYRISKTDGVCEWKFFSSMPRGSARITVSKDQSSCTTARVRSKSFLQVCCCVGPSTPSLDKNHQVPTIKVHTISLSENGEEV

Cannabinoid receptor 1 = Cannabinoid receptor 1 (Homo sapiens, UniProt P21554); type: functional, cell-based
Cannabinoid receptor 1, sequence (P21554 whole entry): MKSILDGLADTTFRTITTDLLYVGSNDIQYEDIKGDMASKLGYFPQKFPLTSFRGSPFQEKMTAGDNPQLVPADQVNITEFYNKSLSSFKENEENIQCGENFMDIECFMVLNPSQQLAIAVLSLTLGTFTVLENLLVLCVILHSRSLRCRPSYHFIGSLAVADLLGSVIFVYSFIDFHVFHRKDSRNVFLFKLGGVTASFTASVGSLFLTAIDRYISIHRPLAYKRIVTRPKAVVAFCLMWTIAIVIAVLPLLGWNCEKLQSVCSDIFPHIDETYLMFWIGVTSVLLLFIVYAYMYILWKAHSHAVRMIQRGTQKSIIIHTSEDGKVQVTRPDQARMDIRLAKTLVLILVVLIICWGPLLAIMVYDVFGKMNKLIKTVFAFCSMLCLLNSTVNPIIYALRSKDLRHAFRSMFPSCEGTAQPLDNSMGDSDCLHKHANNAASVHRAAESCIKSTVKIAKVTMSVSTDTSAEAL

Endothelin-1 receptor = biological target: T2, Endothelin-1 receptor (Homo sapiens, UniProt P25101)
T2 sequence (P25101 whole entry): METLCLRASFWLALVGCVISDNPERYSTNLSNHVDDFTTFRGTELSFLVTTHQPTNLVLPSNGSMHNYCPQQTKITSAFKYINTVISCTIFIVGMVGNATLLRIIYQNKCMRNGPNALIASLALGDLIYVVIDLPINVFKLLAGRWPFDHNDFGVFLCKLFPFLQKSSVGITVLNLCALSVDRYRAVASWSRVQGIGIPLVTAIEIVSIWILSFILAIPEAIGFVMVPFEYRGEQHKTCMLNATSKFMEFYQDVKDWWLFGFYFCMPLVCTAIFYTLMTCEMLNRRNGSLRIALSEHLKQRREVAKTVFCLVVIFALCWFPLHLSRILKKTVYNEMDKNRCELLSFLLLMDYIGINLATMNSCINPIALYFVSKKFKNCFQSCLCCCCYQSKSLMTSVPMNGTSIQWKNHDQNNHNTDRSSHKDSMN

[2] = biological target: T3, 5-hydroxytryptamine receptor 1A (Homo sapiens, UniProt P08908); type: functional, cell-based
T3 sequence (P08908 whole entry): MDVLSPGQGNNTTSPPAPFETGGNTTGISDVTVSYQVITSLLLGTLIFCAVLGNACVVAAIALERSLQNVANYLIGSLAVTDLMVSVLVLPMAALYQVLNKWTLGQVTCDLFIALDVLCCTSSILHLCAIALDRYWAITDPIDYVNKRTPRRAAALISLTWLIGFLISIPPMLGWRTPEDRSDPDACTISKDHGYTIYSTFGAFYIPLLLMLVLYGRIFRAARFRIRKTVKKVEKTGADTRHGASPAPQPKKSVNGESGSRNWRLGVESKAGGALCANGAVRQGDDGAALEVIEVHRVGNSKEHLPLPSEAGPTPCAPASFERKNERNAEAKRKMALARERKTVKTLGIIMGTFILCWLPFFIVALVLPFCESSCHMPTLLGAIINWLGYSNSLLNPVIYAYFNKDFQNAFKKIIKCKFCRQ

[3] = biological target: 5-hydroxytryptamine receptor 2A (Homo sapiens, UniProt P28223); type: functional, cell-based
5-hydroxytryptamine receptor 2A, sequence (P28223 whole entry): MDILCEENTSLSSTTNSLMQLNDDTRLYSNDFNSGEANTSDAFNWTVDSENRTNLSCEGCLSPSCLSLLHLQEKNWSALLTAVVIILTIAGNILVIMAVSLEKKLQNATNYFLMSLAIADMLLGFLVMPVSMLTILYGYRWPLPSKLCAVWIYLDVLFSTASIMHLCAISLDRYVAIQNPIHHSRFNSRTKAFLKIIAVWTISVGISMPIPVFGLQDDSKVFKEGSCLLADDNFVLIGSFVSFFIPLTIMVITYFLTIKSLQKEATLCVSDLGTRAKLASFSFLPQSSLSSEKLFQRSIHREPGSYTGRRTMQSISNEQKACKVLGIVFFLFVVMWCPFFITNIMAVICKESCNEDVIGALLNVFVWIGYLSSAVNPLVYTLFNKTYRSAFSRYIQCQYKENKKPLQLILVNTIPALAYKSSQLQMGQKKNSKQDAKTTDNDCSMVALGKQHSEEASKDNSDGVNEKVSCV

[4] = biological target: T4, Gastrin/cholecystokinin type B receptor (Homo sapiens, UniProt P32239)
T4 sequence (P32239 whole entry): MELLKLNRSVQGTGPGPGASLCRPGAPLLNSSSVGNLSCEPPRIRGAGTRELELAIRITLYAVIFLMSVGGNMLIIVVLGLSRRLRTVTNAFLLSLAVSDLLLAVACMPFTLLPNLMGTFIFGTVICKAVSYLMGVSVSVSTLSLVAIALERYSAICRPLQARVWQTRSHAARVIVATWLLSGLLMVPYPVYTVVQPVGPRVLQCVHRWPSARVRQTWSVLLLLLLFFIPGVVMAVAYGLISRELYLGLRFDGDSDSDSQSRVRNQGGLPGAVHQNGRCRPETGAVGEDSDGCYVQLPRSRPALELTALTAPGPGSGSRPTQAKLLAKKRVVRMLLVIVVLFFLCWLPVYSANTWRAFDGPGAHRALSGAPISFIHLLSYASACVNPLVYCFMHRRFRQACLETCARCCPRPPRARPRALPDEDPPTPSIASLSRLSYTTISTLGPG

[5] = biological target: T3, 5-hydroxytryptamine receptor 1A
[6] = biological target: Sodium-dependent dopamine transporter (Homo sapiens, UniProt Q01959)
Sodium-dependent dopamine transporter, sequence (Q01959 whole entry): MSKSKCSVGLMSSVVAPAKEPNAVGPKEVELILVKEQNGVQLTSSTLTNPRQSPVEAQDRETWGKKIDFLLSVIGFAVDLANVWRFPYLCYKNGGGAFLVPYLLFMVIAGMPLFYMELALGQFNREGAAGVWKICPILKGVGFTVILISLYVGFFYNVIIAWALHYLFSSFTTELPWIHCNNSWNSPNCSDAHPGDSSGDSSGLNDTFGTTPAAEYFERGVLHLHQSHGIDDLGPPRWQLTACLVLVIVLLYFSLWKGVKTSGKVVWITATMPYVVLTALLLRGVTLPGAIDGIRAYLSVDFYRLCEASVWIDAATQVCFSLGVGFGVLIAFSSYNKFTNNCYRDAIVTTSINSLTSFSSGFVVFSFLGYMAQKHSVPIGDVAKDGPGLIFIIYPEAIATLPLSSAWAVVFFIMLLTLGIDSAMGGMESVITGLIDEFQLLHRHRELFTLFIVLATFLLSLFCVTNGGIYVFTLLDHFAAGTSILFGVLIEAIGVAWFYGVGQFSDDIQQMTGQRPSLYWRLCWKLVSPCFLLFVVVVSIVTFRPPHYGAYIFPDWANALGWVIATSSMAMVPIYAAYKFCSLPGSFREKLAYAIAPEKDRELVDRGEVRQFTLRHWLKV

Thromboxane A2 receptor = biological target: T5, Thromboxane A2 receptor (Homo sapiens, UniProt P21731); type: functional, cell-based
T5 sequence (P21731 whole entry): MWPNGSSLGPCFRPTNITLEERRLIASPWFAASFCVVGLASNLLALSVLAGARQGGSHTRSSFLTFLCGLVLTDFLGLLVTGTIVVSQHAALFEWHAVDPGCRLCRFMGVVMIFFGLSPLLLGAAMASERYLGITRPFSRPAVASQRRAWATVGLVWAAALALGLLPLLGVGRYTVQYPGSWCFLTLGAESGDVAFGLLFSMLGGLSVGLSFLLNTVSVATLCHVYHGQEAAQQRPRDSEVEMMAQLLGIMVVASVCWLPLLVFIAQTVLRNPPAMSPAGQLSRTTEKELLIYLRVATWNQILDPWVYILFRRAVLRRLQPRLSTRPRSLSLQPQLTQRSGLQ

[7] = biological target: T6, Gastric inhibitory polypeptide receptor (Homo sapiens, UniProt P48546)
T6 sequence (P48546 whole entry): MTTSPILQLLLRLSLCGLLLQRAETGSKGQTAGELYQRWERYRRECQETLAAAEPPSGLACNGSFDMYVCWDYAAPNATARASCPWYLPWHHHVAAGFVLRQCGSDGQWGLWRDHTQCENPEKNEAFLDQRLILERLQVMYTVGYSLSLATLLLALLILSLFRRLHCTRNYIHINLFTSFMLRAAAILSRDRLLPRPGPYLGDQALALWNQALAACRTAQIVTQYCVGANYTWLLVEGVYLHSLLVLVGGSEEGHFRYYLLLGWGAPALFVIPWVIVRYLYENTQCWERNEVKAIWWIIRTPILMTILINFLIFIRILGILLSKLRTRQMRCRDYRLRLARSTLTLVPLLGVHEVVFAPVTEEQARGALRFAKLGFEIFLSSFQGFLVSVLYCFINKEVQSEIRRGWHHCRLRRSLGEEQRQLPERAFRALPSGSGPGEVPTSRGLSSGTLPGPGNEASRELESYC
Also: assay procedure not described here.

CNC1Cc2ccccc2N(C)c2ccccc21 (stereo unspecified) [METAPRAMINE]
AC50 [1]: > 30 µM
AC50 (Cannabinoid receptor 1): > 30 µM
AC50 (Endothelin-1 receptor): > 30 µM
AC50 [2]: > 30 µM
AC50 [3]: 14 µM

CC1(C)NC(=O)N(c2ccc([N+](=O)[O-])c(C(F)(F)F)c2)C1=O [NILUTAMIDE]
AC50 [4]: > 30 µM
AC50 [2]: > 30 µM
AC50 [5]: > 30 µM
AC50 [3]: > 30 µM
AC50 [6]: > 30 µM
AC50 (Thromboxane A2 receptor): > 3 µM

Cc1nc([N+](=O)[O-])cn1-c1ccc([N+](=O)[O-])cc1 [NITREFAZOLE]
AC50 [1]: > 30 µM
AC50 [4]: > 30 µM
AC50 (Cannabinoid receptor 1): > 30 µM
AC50 (Endothelin-1 receptor): > 30 µM
AC50 [3]: > 30 µM

CC[C@H]1[C@@H](O)[C@@H]2[C@H](CC[C@]3(C)[C@@H]([C@H](C)CCC(=O)O)CC[C@@H]23)[C@@]2(C)CC[C@@H](O)C[C@@H]12 [OBETICHOLIC ACID]
AC50 [1]: > 30 µM
AC50 [4]: > 30 µM
AC50 (Cannabinoid receptor 1): > 30 µM
AC50 (Endothelin-1 receptor): > 30 µM
AC50 [5]: > 30 µM
AC50 [3]: 11.5 µM
AC50 [6]: > 30 µM
AC50 (Thromboxane A2 receptor): > 30 µM

COc1ccc(CC(C)(C)NC[C@H](O)c2cc(O)cc3c2OCC(=O)N3)cc1 [OLODATEROL]
AC50 [1]: > 30 µM
AC50 (Cannabinoid receptor 1): > 30 µM
AC50 (Endothelin-1 receptor): > 30 µM
AC50 [2]: 29 µM
AC50 [3]: 12.8 µM

CCCN1C[C@H](CSC)C[C@@H]2c3cccc4[nH]cc(c34)C[C@H]21 [PERGOLIDE]
AC50 [1]: 0.33 µM
AC50 [4]: > 30 µM
AC50 (Cannabinoid receptor 1): > 10 µM
AC50 (Endothelin-1 receptor): > 30 µM
AC50 [7]: > 30 µM

c1cnc(N2CCN(Cc3ccc4c(c3)OCO4)CC2)nc1 [PIRIBEDIL]
AC50 [1]: > 30 µM
AC50 (Cannabinoid receptor 1): > 30 µM
AC50 (Endothelin-1 receptor): > 30 µM
AC50 [2]: 20 µM
AC50 [3]: > 30 µM

COCCCN1CCC(NC(=O)c2cc(Cl)c(N)c3c2OCC3)CC1 [PRUCALOPRIDE]
AC50 [1]: > 30 µM
AC50 (Cannabinoid receptor 1): > 30 µM
AC50 (Endothelin-1 receptor): > 30 µM
AC50 [2]: > 30 µM
AC50 [5]: 6.1 µM
AC50 [3]: > 30 µM
AC50 [6]: > 30 µM
AC50 (Thromboxane A2 receptor): > 30 µM

COc1ccccc1OCC(O)CN1CCN(CC(=O)Nc2c(C)cccc2C)CC1 (stereo unspecified) [RANOLAZINE]
AC50 [1]: > 30 µM
AC50 [4]: > 30 µM
AC50 (Endothelin-1 receptor): > 30 µM
AC50 [3]: > 30 µM

Clc1ccc2nsnc2c1NC1=NCCN1 [TIZANIDINE]
AC50 [1]: 0.0098 µM
AC50 [4]: > 30 µM
AC50 (Endothelin-1 receptor): > 30 µM
AC50 [7]: > 30 µM
AC50 [2]: > 10 µM

O=C(O[C@H]1C[C@H]2CC[C@@H](C1)[N+]21CCCC1)C(O)(c1ccccc1)c1ccccc1 [TROSPIUM]
AC50 [1]: > 30 µM
AC50 [4]: > 30 µM
AC50 [2]: > 30 µM
AC50 [3]: > 30 µM

Nc1ccn([C@H]2CC[C@@H](CO)O2)c(=O)n1 [ZALCITABINE]
AC50 [1]: > 30 µM
AC50 (Cannabinoid receptor 1): > 30 µM
AC50 [2]: > 10 µM
AC50 [3]: > 10 µM

NS(=O)(=O)Cc1noc2ccccc12 [ZONISAMIDE]
AC50 [2]: > 10 µM
AC50 [3]: > 10 µM
